Test results from patent publication US20240019450A1, “FLUORESCENT SENSORS” (THE UNIVERSITY OF SYDNEY, priority 2020, published 2024).

test: Fluorescence spectroscopy of the sensors (excitation and emission); format: physicochemical
Experimental: Fluorescence spectroscopy was performed on a bench top Perkin-Elmer Enspire Multimode Plate Reader. […] 5 replicates of each sensor-metal or sensor-complex solution were used. […] Fluorescence responses to analytes were determined using integrated emission intensity, and for each sensor a control well containing no analyte was included to normalise the response for analysis.
The sensors were tested using the procedure described in Example 4, and the obtained data was analysed using LDA. […] Sensors S1-S9 were used in subsequent experiments.

excitation wavelength (maximum excitation wavelength of the sensor) [nm]	Compound
280	O=[N+]([O-])c1ccc2c(/N=N/c3ccc4ccccc4c3O)c(O)cc(S(=O)(=O)[O-])c2c1.[Na+] [S8]
480	O=C1c2ccccc2C2(c3ccc(O)cc3Oc3cc(O)ccc32)N1NC(=S)S [S1]
445	CCN(CC)c1ccc2c(c1)Oc1cc(N(CC)CC)ccc1C21c2ccccc2C(=O)N1OCc1cn(Cc2ccccc2)nn1 [S7]
380	Cc1cc(=O)oc2c(CN(CC(=O)O)CC(=O)O)c(O)ccc12 [S5]

Compound	excitation wavelength (maximum excitation wavelength of the sensor) [nm]
O=S(=O)([O-])c1cc(O)c(N=Nc2c(O)ccc3ccccc23)c2ccccc12.[Na+] [S9]	280

test: not given

melting point [°C]	Compound
220	S=C(S)n1ncc2ccccc21 [formula X, 1H-indazole-1-carbodithioic acid]
100	S=C(S)C1=C(NCc2ccccc2)CCC1 [formula XIV, 2-(benzylamino)cyclopent-1-enecarbodithioic acid]
